Measured values: patent US20230277569A1, “Compositions and Methods for Treating, Ameliorating and/or Preventing Cancer and Kits for the Same” (priority 2022, published 2023)
“Also recorded” adds a separate entry of the source. Like-named read-outs stand apart in the source and are kept apart here.

Tests used:
[1] = target: CYP2A6 (Homo sapiens, UniProt P11509); assay: CYP inhibition in liver microsomes, CYP2A6; format: in vitro ADME; details: human liver microsomes 0.1 mg/mL
Procedure: (§2) After addition of prototypical CYP substrates in 250 μL, samples were incubated for 10 min (CYP1A2, CYP2B6, CYP2C9, and CYP3A4) or 20 min (CYP2C8) at 37° C. in 5% CO2. […] Samples were analyzed for metabolite formation by LC-MS/MS. The results were expressed using the peak area ratio of analyte to internal standard, based on the calibration curves.
(§3) where Range=fitted uninhibited value, s=slope factor, x=inhibitor concentration, y=% control activity.

[2] = target: Nav1.5 (Homo sapiens, UniProt Q14524); assay: Ion channel screening, Nav1.5; format: cell-based; details: n=3, pulse 26, read-out: inhibition of Nav1.5 currents
From the text: The parameters measured were the maximum inward current evoked on stepping to −20 mV from the 1st and 26th pulse. Human Kv4.3/KChIP2 currents were evoked from a holding potential of −80 mV by a series of four 500 msec pulses to 0 mV using a 1000 msec interval between pulses. The parameter measured was the amplitude of the outward current 50 msec after the onset of the 4th voltage step to 0 mV. Human Cav1.2 currents were evoked by 2 pulses to −10 mV from a holding potential of −100 mV. The parameters measured were the maximum inward currents evoked on stepping to −10 mV from the holding potential of −100 mV for the 1st and 2nd pulse. Human Kv1.5 currents were evoked by a single pulse from a holding potential of −80 mV to a potential of 0 mV for 4 sec before returning to −80 mV. The parameters measured were the maximum amplitude of outward currents evoked at the beginning of the voltage pulse and at the end of the voltage step from −80 mV to 0 mV. Human KCNQ1/minK currents were evoked by a single pulse delivered from a holding potential of −80 mV to +60 mV for 4 sec before returning to −80 mV. The parameter measured was the maximum outward current evoked on stepping to +60 mV from the holding potential of −80 mV. hERG currents were evoked by a three-pulse protocol where voltage was first stepped to +40 mV for two sec from a holding potential of −80 mV to inactivate hERG channels. […]

[3] = test system: Sprague-Dawley rats; assay: Toxicity and toxicokinetics in rats, IV twice weekly for 29 d; format: in vivo; details: for reduction in mean body weights: male rats
Procedure: (§1) Ninety-six male and female Sprague-Dawley rats (6-7 weeks old) were received from Charles River Laboratories, (Raleigh, N.C.) and catheterized via a femoral vein prior to arrival. Animals were acclimated in individual stainless-steel cages with access to water and Certified Rodent Diet #2014C (Envigo RMS) ad libitum for 6 d prior to study initiation. Environmental controls were set to maintain a temperature range of 20 to 26° C., a relative humidity range of 30 to 70%, eight or greater air changes/h, and a 12-h light/dark cycle. Animals were infused with sterile isotonic (0.9%) saline for a minimum of 4 d (0.20 mL/h for males or 0.15 mL/h for females) during the predose phase. At initiation of dosing, animals were 8 to 9 weeks old, and body weights ranged from 283 to 341 g for males and 188 to 238 g for females. Gamitrinib formulated as indicated above was administered by IV infusion on d […], 8, 11, 15, 18, 22, 25, and 29 of the dosing phase at 1, 10, 25 mg/kg/dose and dose volume of 5 mL/kg. The vehicle control administered with the same schedule contained 2.5% DMSO, 0.125% polysorbate 80, 0.031% lecithin, 1.25% sucrose and 4.375% dextrose. Animals were checked twice daily throughout the duration of the study for mortality, abnormalities, and signs of pain or distress. Detailed observations were conducted for each animal up to two times during the predose phase and for each toxicity animal prior to dosing on d 1, 8, 15, 22, and 29 of the dosing phase and on d 1, 7, and 14 of the recovery phase. Blood samples were collected on d. 1, 4 and 29 of the dosing phase 5 min, 1 h and 24 h post-dose, maintained on chilled cryoracks and centrifuged within 1 h of collection. Tissue samples harvested from each animal were embedded in paraffin, sectioned, and slides were prepared and stained with hematoxylin and eosin.

[4] = as above; format: in vivo, Sprague-Dawley rats; details: Sprague-Dawley, rat; for Cmax / AUC(0-t): plasma, iv, rats; for AUC(0-t): read-out: AUC0-24
Procedure: as §1

[5] = Stability in human plasma; format: in vitro ADME
[6] = test system: tumor; details: cited from earlier work
[7] = target: T1, hERG (Homo sapiens, UniProt Q12809); assay: Ion channel screening, hERG; format: cell-based; details: n=16, read-out: inhibition of hERG currents (ion channel screening)
T1 construct: expressed in transfected cells; host or cells: HEK293 (ATCC), polyclonal, stably transfected, G418 selection
From the text: The parameter measured was the maximum outward current evoked on stepping to +60 mV from the holding potential of −80 mV. hERG currents were evoked by a three-pulse protocol where voltage was first stepped to +40 mV for two sec from a holding potential of −80 mV to inactivate hERG channels. The voltage is then stepped back to −50 mV for two sec to evoke a tail current prior to returning to the holding potential for 1 sec. The parameter measured was the amplitude of the 3rd pulse tail current upon stepping back to −50 mV after the step to +40 mV. Human HCN4 currents were evoked by a single pulse from a holding potential of −30 mV to a potential of −110 mV for 4 sec prior to returning to −30 mV. The parameter measured was the maximum inward current evoked upon stepping to −110 mV from the holding potential of −30 mV. Human Kir2.1 currents were evoked from a holding potential of −20 mV by a series of 10 500 msec pulses to −120 mV using a 200 msec interval between pulses. The parameters measured were the amplitudes of the instantaneous inward currents evoked on stepping to −120 mV for the 1st pulse and the maximum inward current at the end of the 10th hyperpolarizing pulse. For all experiments, data were filtered for seal quality, seal drop, and current amplitude.

[8] = test system: breast adenocarcinoma cell lines; details: breast adenocarcinoma lines of NCI 60 screen; read-out: IC50 anticancer activity; cited from earlier work
[9] = test system: melanoma cell lines; details: melanoma lines of NCI 60 screen; read-out: IC50 anticancer activity; cited from earlier work
[10] = Phase I, cytochrome P450-mediated human liver microsome metabolism
[11] = test system: NCI 60 cell lines; details: NCI 60 cell line screen; read-out: IC50 anticancer activity; cited from earlier work
[12] = target: T1, hERG; assay: Patch clamp recording of hERG currents in transfected HEK293 cells; format: cell-based
Procedure: Caco-2 and HEK293 cells were obtained from the American Type Culture Collection (ATCC, Manasass, Va.) and grown in culture according to the supplier's specifications. In some experiments, HEK293 cells were stably transfected with hERG cDNA and polyclonal cultures were maintained in the presence of 250 μg/ml geneticin (G418).
For electrophysiology recording, a micropipette was pulled from borosilicate glass with the pipette tip resistance between 3˜5 MΩ. For each experiment, polyclonal HEK293 cells stably transfected with hERG cDNA and maintained in 250 μg/ml Geneticin (G418) were plated on 35 mm dishes on the microscope stage and a commercial patch clamp amplifier was used for the whole cell recordings. The tail currents were evoked at 22° C. once every 30 sec by a 3 sec-50 mV repolarizing pulse following a 2 sec+50 mV depolarizing pulse with a hold voltage of −80 mV. A 50 msec depolarized pulse to −50 mV at the beginning of the voltage protocol served as a baseline for calculating the amplitude of the peak tail current. The hERG currents were allowed to stabilize over a 3 min period in the presence of vehicle alone prior to Gamitrinib application. The cells were kept in the test solution until the peak tail current was stable (<5% change) for ˜5 sweeps or for a maximum of 6 min, whichever came first. Peak tail amplitudes were plotted as a function of the sweep number. Five peak tail current measurements at the steady state before Gamitrinib application were averaged and used as the control current amplitude. Four or five peak tail current measurements at the steady state after Gamitrinib application were averaged and used as the remaining current amplitude after inhibition by the test article. The % inhibition of the test article was calculated from the following equation: […]

[13] = target: CYP2C9 (Homo sapiens, UniProt P11712); assay: CYP inhibition in liver microsomes, CYP2C9; format: in vitro ADME; details: human liver microsomes 0.1 mg/mL
Procedure: as §2, §3

[14] = target: CYP2C8 (Homo sapiens, UniProt P10632); assay: CYP inhibition in liver microsomes, CYP2C8; format: in vitro ADME; details: human liver microsomes 0.1 mg/mL
Procedure: as §2, §3

[15] = 1 mg/kg/dose (NOAEL), d 29 of dosing

T1 sequence (Q12809 whole entry): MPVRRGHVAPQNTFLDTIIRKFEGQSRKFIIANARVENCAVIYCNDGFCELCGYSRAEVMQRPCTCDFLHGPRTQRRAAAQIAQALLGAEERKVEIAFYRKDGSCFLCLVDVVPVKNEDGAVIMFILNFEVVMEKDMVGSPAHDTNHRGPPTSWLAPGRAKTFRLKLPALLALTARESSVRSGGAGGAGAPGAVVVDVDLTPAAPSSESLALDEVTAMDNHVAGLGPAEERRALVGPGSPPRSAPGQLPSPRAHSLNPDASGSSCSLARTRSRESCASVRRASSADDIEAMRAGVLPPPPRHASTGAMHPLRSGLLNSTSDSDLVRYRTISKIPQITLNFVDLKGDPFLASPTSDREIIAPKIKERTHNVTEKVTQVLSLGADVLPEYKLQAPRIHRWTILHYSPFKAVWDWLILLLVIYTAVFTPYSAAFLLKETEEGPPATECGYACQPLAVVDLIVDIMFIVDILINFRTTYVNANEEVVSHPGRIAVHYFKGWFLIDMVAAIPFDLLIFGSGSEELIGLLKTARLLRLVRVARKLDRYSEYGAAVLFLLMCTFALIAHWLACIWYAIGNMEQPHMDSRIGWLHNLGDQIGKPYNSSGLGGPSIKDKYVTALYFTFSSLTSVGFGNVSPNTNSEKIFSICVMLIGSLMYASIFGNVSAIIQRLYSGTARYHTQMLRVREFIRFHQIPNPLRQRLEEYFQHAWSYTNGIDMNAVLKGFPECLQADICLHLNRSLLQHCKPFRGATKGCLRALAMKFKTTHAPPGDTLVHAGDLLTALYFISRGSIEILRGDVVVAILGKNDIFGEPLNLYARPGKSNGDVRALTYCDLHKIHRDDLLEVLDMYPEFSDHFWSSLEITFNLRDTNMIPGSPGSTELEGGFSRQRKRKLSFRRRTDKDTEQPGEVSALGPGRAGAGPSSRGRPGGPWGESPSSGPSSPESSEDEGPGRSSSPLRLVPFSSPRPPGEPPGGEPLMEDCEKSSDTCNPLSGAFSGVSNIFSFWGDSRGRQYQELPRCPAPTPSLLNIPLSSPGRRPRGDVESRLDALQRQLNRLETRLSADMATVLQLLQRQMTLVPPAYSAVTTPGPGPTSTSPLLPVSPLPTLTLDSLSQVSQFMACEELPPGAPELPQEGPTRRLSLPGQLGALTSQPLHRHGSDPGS
CYP2A6, sequence (P11509 whole entry): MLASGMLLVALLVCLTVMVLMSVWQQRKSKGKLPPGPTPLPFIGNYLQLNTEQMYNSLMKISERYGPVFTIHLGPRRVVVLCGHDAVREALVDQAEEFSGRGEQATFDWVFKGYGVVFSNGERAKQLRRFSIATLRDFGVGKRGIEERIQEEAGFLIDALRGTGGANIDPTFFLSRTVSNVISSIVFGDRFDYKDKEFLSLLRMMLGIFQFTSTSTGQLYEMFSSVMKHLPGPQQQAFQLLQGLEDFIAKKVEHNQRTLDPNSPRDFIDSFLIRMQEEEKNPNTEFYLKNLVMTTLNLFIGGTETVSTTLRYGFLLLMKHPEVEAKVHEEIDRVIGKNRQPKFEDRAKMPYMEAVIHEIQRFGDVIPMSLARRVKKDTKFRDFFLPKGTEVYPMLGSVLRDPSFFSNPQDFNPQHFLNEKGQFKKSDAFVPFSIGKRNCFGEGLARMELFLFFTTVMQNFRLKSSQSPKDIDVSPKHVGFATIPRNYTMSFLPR
Nav1.5, sequence (Q14524 whole entry): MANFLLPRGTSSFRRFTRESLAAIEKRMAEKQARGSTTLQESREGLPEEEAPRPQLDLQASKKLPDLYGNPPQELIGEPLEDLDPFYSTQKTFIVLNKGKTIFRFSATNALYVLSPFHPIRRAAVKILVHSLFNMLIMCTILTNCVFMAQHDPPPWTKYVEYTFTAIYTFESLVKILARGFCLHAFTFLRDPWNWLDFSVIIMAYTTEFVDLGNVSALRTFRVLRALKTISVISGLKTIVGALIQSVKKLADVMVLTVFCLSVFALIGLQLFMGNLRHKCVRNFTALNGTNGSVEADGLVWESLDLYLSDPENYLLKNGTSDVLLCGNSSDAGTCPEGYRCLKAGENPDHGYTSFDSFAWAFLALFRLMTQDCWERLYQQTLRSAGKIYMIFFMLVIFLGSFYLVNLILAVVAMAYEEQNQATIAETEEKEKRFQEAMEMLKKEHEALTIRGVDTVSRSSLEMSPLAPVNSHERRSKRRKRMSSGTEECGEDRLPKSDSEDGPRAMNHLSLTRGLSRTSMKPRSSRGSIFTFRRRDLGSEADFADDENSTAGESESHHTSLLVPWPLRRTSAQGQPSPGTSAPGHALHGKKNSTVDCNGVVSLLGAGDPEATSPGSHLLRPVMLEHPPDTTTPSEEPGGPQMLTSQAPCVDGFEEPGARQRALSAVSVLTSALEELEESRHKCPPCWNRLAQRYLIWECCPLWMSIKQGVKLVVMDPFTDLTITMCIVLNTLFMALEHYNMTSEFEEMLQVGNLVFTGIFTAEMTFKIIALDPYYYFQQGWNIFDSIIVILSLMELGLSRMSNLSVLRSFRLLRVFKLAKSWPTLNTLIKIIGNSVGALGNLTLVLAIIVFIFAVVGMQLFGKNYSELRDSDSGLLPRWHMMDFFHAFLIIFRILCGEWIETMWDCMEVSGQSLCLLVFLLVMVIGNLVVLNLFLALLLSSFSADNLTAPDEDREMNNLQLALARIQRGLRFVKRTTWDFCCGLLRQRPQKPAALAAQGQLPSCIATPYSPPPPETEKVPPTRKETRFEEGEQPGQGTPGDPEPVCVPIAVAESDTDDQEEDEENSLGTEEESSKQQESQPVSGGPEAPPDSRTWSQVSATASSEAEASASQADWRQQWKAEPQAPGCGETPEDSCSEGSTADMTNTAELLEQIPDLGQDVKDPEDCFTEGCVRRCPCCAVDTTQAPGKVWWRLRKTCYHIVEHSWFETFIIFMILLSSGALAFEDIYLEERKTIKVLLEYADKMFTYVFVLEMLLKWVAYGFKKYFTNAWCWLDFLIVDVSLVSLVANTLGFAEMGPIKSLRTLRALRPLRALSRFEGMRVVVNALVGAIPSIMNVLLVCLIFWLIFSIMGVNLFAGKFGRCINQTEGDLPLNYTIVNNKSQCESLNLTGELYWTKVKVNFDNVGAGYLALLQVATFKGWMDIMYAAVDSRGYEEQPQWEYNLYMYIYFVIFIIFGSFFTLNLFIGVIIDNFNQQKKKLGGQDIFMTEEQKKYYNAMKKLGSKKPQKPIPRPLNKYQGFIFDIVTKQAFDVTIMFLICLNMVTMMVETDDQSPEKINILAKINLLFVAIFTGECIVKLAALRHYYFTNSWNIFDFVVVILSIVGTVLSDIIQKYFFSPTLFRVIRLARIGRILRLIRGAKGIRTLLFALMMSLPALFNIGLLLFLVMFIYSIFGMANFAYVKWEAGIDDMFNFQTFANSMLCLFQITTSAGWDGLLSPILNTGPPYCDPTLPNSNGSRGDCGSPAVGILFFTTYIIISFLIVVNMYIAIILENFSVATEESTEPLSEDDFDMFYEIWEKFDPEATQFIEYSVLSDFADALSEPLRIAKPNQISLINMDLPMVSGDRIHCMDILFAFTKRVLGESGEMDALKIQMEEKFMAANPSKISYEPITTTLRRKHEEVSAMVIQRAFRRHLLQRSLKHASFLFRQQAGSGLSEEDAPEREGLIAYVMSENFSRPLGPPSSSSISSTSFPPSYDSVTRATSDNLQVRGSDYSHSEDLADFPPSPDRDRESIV
CYP2C8, sequence (P10632 whole entry): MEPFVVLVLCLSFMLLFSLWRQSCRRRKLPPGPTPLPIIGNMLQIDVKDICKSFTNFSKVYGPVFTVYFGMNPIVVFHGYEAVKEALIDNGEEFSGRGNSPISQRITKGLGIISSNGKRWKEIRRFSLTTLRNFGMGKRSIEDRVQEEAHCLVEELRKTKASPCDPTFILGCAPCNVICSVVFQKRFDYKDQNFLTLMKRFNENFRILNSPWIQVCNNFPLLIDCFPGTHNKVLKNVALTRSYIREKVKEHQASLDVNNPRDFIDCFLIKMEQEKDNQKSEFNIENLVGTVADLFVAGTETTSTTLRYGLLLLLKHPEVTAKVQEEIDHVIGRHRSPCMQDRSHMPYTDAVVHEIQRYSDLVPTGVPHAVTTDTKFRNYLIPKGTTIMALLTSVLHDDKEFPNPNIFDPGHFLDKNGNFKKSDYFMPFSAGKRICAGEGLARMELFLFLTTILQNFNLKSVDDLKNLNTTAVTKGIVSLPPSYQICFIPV
CYP2C9, sequence (P11712 whole entry): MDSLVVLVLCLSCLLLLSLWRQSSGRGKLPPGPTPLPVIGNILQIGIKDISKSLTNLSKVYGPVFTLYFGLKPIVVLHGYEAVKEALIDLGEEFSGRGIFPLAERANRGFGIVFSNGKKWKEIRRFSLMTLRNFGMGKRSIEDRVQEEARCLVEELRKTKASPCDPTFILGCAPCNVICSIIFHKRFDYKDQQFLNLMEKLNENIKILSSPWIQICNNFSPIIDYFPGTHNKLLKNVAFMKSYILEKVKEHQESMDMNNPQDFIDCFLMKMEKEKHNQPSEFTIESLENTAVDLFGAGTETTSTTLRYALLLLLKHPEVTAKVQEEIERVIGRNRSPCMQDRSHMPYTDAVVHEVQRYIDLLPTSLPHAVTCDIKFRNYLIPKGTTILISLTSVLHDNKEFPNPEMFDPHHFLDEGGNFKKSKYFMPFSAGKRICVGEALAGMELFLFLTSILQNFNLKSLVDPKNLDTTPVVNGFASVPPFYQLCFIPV

In the case of `CO[C@H]1/C=C\C=C(/C)C(=O)NC2=CC(=O)C(NCCCCCC[P+](c3ccccc3)(c3ccccc3)c3ccccc3)=C(C[C@@H](C)C[C@H](OC)[C@H](O)[C@@H](C)/C=C(\C)[C@@H]1OC(N)=O)C2=O` [Gamitrinib, 17-Demethoxy-17-((6-(triphenylphosphonio)hexyl)amino)geldanamycin], the IC50 [1] is reported as 24 µM, the inhibition at 10 µM [2] is reported as 22.3 ± 5.3% and the “reduction in mean body weights” value ([3]; 10 mg/kg/dose IV twice weekly) is reported as −5.5%. For the same molecule, the “reduction in mean body weights” value ([3]; 25 mg/kg/dose IV twice weekly) was −5.7%, the “urinalysis or ophthalmic changes” value ([3]; rats) was “No effects” and the Gamitrinib-related clinical observations ([3]; rats administered 10 mg/kg/dose) was “inguinal swelling, piloerection, hypoactivity, and sensitivity to touch at the infusion site”. For the same molecule, the “microscopic findings at the infusion site” value ([3]; rats administered 10 mg/kg/dose (both sexes)) was “mixed cell inflammation at the catheter/infusion site”, the kidney histology ([3]; rats, 25 mg/kg/dose IV, 25 mg/kg) was “slight kidney tubule degeneration/regeneration; also recorded: marked kidney tubule degeneration/regeneration; also recorded: tubular degeneration/regeneration” and the “serum urea nitrogen (UN) and creatinine concentrations” value ([3]; rats, 25 mg/kg/dose, 25 mg/kg) was “Minimally to mildly higher; also recorded: mild elevation of urea nitrogen”. For the same molecule, the serum urea nitrogen ([3]; rats, >10 mg/kg/dose) was “mild elevation”, the “no observed adverse effect level (NOAEL)” value ([3]; rats, IV twice weekly 29 d) was 1 mg/kg/dose and the “severely toxic dose in 10% of the animals (STD 10)” value ([3]; rats, IV twice weekly 29 d) was 10 mg/kg/dose. The “Alterations in clinical chemistry parameters” value ([3]; rats, highest Gamitrinib dose level tested) was “mildly to moderately higher neutrophil and platelet (Plts) counts, minimally prolonged partial thromboplastin time (PT), lower albumin, higher globulin, and alkaline phosphatase concentrations”, the drug accumulation ([3]; rats, Cmax and AUC0-24 similar on d 4 and d 29) was “no drug accumulation after multiple doses” and the Gamitrinib-related mortality ([3]; toxicity rats, 10 mg/kg/dose) was “one male”. For the same molecule, the Gamitrinib-related mortality ([3]; toxicity rats, 25 mg/kg/dose) was “two males and one female”, the Gamitrinib-related mortality ([3]; toxicokinetic rats, 10 mg/kg/dose) was “two toxicokinetic females” and the Gamitrinib-related mortality ([3]; toxicokinetic rats, 25 mg/kg/dose) was “one toxicokinetic female”. The Cmax [4, 15] was 87.1 ng/mL, the AUC(0-t) [4, 15] was 174 ng·h/mL and the Cmax ([4]; 10 mg/kg/dose (STD 10), d 29) was 311 ng/mL. It also gave an AUC(0-t) ([4]; 10 mg/kg/dose (STD 10), d 29) of 1300 ng·h/mL, a Vd ([4]; both sexes, in vivo, rats, 1, 10 or 25 mg/kg/dose IV twice weekly, d 4 and d 29, read-out: Vss) of 12.2 to 90 L/kg and a recovery [5] of 82.8 ± 3%. The “stability in human plasma” value [5] was 91.4%, the “therapeutically effective dose in mice” value [6] was 10 mg/kg and the inhibition at 10 µM [7] was 37.9 ± 1.7%. The IC50 [8] was 0.16 to 3.3 µM, the IC50 [9] was 0.36 to 2.7 µM and the “elimination rate constant (k)” value ([10]; 0.5 μM, human liver microsomes) was 0.041. For the same molecule, the “intrinsic clearance (CLint)” value ([10]; 0.5 μM, human liver microsomes) was 3.30 mL/min/g, the half-life at 0.5 μM ([10]; human, liver microsomes) was 16.7 min and the IC50 [11] was 0.16 to 29 µM. For the same molecule, the “hERG IC50 relative to IC50 of inhibition of tumor growth in NCI 60-cell line screen” value ([12]; hERG IC50 3.5 μM higher than tumor IC50) was “up to 20 fold”, the inhibition at 0.5 µM ([12]; human, HEK293 cells stably transfected with hERG, pH 7.4, 0.5 μM, transfected HEK293 cells, mean±SD) was -0.68 ± 3.95% and the inhibition at 1 µM ([12]; human, HEK293 cells stably transfected with hERG, pH 7.4, 1 μM, transfected HEK293 cells, mean±SD) was 11.7 ± 6.51%. It also gave an inhibition at 5 µM ([12]; human, HEK293 cells stably transfected with hERG, pH 7.4, 5 μM, transfected HEK293 cells, mean±SD) of 66 ± 6.78%, an inhibition at 10 µM ([12]; human, HEK293 cells stably transfected with hERG, pH 7.4, 10 μM, transfected HEK293 cells, mean±SD) of 81.8 ± 1.88% and an IC50 ([12]; patch-clamp, transfected HEK293 cells, read-out: IC50 of hERG inhibition) of 3.5 µM. For the same molecule, the IC50 [13] was 1.1 µM and the IC50 [14] was 8 µM.
